Like-named read-outs stand apart in the source and are kept apart here.
Settings: 14-membered ring, Cs2CO3, DMF, 85.0 °C
[1] = from O=C(NC[C@H](O)CCl)c1cnn2ccc(N3CC(F)(F)CC3c3cc(F)ccc3O)nc12, ether bond, 20.0 mM

O=C1NC[C@H](O)Cn2cc(F)cc(c2=O)[C@H]2CCCN2c2ccn3ncc1c3n2
ring closure, isolated yield (from N—((S)-3-chloro-2-hydroxypropyl)-5-4R)-2-(5-fluoro-2-oxo-1,2-dihydropyridin-3-yl)pyrrolidin-1-yl)pyrazolo[1,5-a]pyrimidine-3-carboxamide hydrochloride, other bond, […]): 12%

O=C1NC[C@H](O)COc2ccc(F)cc2C2CC(F)(F)CN2c2ccn3ncc1c3n2 (single isomer, unassigned; diastereomer 1)
ring closure, isolated yield [1]: 20%

O=C1NC[C@H](O)COc2ccc(F)cc2C2CC(F)(F)CN2c2ccn3ncc1c3n2 (single isomer, unassigned; diastereomer 2)
ring closure, isolated yield [1]: 24%

Source: US9902741
